The assay addresses T1, human TLR7 (Homo sapiens, UniProt Q9NYK1).
T1 sequence (Q9NYK1 27-1049): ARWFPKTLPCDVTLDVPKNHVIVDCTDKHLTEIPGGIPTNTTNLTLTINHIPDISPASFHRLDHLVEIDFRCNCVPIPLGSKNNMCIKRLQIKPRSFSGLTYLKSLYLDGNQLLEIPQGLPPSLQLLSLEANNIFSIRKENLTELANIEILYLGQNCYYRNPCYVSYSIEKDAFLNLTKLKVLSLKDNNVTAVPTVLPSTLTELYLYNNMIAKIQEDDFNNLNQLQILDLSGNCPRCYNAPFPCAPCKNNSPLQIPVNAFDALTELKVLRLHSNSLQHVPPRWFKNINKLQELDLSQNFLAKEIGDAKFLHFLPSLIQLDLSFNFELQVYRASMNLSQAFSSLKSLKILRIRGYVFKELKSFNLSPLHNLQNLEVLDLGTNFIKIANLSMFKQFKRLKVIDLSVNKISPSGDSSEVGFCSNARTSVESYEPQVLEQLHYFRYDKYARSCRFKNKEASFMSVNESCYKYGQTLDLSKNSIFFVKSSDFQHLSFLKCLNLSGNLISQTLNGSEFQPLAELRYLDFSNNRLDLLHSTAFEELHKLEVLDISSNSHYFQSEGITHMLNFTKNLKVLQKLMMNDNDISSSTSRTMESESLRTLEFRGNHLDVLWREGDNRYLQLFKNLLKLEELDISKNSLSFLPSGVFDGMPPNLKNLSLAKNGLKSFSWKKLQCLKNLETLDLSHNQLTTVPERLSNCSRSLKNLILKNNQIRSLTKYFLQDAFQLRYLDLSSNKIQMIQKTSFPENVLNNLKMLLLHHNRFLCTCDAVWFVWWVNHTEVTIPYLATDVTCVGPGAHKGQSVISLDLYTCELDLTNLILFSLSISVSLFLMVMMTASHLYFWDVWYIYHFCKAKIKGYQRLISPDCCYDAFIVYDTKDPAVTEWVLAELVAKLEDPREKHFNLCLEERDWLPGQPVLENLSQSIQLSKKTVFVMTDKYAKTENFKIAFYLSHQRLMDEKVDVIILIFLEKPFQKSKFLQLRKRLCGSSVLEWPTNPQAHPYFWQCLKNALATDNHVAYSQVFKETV
Put plainly: HEK293-Blue-hTLR-7 cells assay (SEAP reporter, R848 stimulation). The assay is classed as cell-based. How it is done:
The following tests were carried out in order to determine the activity of the compounds of formula (I) in HEK293-Blue-hTLR-7/8/9 cells assay.
HEK293-Blue-hTLR-7 Cells Assay:
A stable HEK293-Blue-hTLR-7 cell line was purchased from InvivoGen (Cat. #: hkb-htlr7, San Diego, California, USA). These cells were originally designed for studying the stimulation of human TLR7 by monitoring the activation of NF-κB. A SEAP (secreted embryonic alkaline phosphatase) reporter gene was placed under the control of the IFN-β minimal promoter fused to five NF-κB and AP-1-binding sites. The SEAP was induced by activating NF-κB and AP-1 via stimulating HEK-Blue hTLR7 cells with TLR7 ligands. Therefore the reporter expression was declined by TLR7 antagonist under the stimulation of a ligand, such as R848 (Resiquimod), for incubation of 20 hrs. The cell culture supernatant SEAP reporter activity was determined using QUANTI-Blue™ kit (Cat. #: rep-qb1, Invivogen, San Diego, Ca, USA) at a wavelength of 640 nm, a detection medium that turns purple or blue in the presence of alkaline phosphatase.
HEK293-Blue-hTLR7 cells were incubated at a density of 250,000˜450,000 cells/mL in a volume of 170 μL in a 96-well plate in Dulbecco's Modified Eagle's medium (DMEM) containing 4.5 g/L glucose, 50 U/mL penicillin, […], […], 2 mM L-glutamine, 10% (v/v) heat-inactivated fetal bovine serum with addition of 20 μL test compound in a serial dilution in the presence of final DMSO at 1% and 10 μL of 20 uM R848 in above DMEM, perform incubation under 37° C. in a CO2 incubator for 20 hrs. Then 20 μL of the supernatant from each well was incubated with 180 μL Quanti-blue substrate solution at 37° C. for 2 hrs and the absorbance was read at 620˜655 nm using a spectrophotometer. The signalling pathway that TLR7 activation leads to downstream NF-κB activation has been widely accepted, and therefore similar reporter assay was modified for evaluating TLR7 antagonist.

[1] abbreviates: HEK293-Blue-hTLR-7 cells, R848 ligand, 20 hrs incubation, read-out: TLR7 IC50.

Each structure is given as a SMILES string. Like-named read-outs stand apart in the source and are kept apart here.

Usually IC50 stands for the concentration that inhibits the measured activity by half.

Consider `C[C@@H]1CN(c2ccc(C#N)n3nccc23)C[C@H](C(=O)NCC2CN(C)CCO2)O1` (stereo partly drawn) [Example 7, (2R,6R)-4-(7-cyanopyrazolo[1,5-a]pyridin-4-yl)-6-methyl-N-[(4-methylmorpholin-2-yl)methyl]morpholine-2-carboxamide], for which, under setting [1], the IC50 amounted to 67 nM.

The compound `C[C@@H]1CN(c2ccc(C#N)n3nccc23)C[C@H](C(=O)NC2CC3CCCC(C2)N3C)O1` (stereo partly drawn) [Example 35, (2R,6R)-4-(7-cyanopyrazolo[1,5-a]pyridin-4-yl)-6-methyl-N-(9-methyl-9-azabicyclo[3.3.1]nonan-3-yl)morpholine-2-carboxamide] showed a concentration for half-maximal inhibition (IC50) of 4 nM.

On to `C[C@@H]1CN(c2ccc(C#N)n3nccc23)C[C@H](C(=O)NC2CCCNCC2)O1` (stereo partly drawn) [Example 6, (2R,6R)-N-(azepan-4-yl)-4-(7-cyanopyrazolo[1,5-a]pyridin-4-yl)-6-methyl-morpholine-2-carboxamide], for which the half-inhibitory concentration (IC50) under setting [1] was determined as 16 nM.

`C[C@H]1C[C@@H](NC(=O)[C@H](C)N)CN(c2ccc(C#N)n3nccc23)C1` [Example 44, (2S)-2-amino-N-[(3R,5S)-1-(7-cyanopyrazolo[1,5-a]pyridin-4-yl)-5-methyl-3-piperidyl]propanamide]: under setting [1], the IC50 came out at 64 nM.

As to `C[C@@H]1CN(c2ccc(C#N)n3nccc23)C[C@H](C(=O)NC2C3CNCC2COC3)O1` (stereo partly drawn) [Example 27, (2R,6R)-4-(7-cyanopyrazolo[1,5-a]pyridin-4-yl)-6-methyl-N-(3-oxa-7-azabicyclo[3.3.1]nonan-9-yl)morpholine-2-carboxamide], under setting [1], the IC50 came to 63 nM.

Turning to `C[C@@H]1CN(c2ccc(C#N)n3nccc23)C[C@H](C(=O)N2CCC3(CCNCC3)CC2)O1` [Example 28, 4-[(2R,6R)-2-(3,9-diazaspiro[5.5]undecane-3-carbonyl)-6-methyl-morpholin-4-yl]pyrazolo[1,5a]pyridine-7-carbonitrile], under setting [1], the IC50 stood at 320 nM.

On to `C[C@@H]1CN(c2ccc(C#N)n3nccc23)C[C@H](C(=O)NC2C3CNC[C@@H]32)O1` (stereo partly drawn) [Example 31, Trans-(2R,6R)-N-(3-azabicyclo[3.1.0]hexan-6-yl)-4-(7-cyanopyrazolo[1,5-a]pyridin-4-yl)-6-methyl-morpholine-2-carboxamide], for which the IC50 under setting [1] was determined as 50 nM.

With `C[C@@H]1CN(c2ccc(C#N)n3nccc23)C[C@H](C(=O)NC2CCN(C)CC2)O1` [Example 1, (2R,6R)-4-(7-cyanopyrazolo[1,5-a]pyridin-4-yl)-6-methyl-N-(1-methyl-4-piperidyl)morpholine-2-carboxamide], under setting [1], the IC50 turned out to be 17 nM.

For the compound `CCC(O)CNC(=O)[C@H]1CN(c2ccc(C#N)n3nccc23)C[C@@H](C)O1` (stereo partly drawn) [Example 13, (2R,6R)-4-(7-cyanopyrazolo[1,5-a]pyridin-4-yl)-N-(2-hydroxybutyl)-6-methyl-morpholine-2-carboxamide], the IC50 under setting [1] worked out at 490 nM.

For the compound `C[C@@H]1CN(c2ccc(C#N)n3nccc23)C[C@H](C(=O)NC2CC3CCCC(C2)N3)O1` (stereo partly drawn) [Example 14, (2R,6R)-N-(9-azabicyclo[3.3.1]nonan-3-yl)-4-(7-cyanopyrazolo[1,5-a]pyridin-4-yl)-6-methyl-morpholine-2-carboxamide], the IC50 under setting [1] amounted to 7 nM.

For the compound `C[C@@H]1CN(c2ccc(C#N)n3nccc23)C[C@H](C(=O)NC2C3CCC2CNC3)O1` (stereo partly drawn) [Example 26, (2R,6R)-N-(3-azabicyclo[3.2.1]octan-8-yl)-4-(7-cyanopyrazolo[1,5-a]pyridin-4-yl)-6-methyl-morpholine-2-carboxamide], the 50% inhibitory concentration (IC50) under setting [1] stood at 20 nM.

For `C[C@@H]1CN(c2ccc(C#N)n3nccc23)C[C@H](C(=O)NC2CC3CCC2CN3C)O1` (stereo partly drawn) [Example 34, (2R,6R)-4-(7-cyanopyrazolo[1,5-a]pyridin-4-yl)-6-methyl-N-(2-methyl-2-azabicyclo[2.2.2]octan-5-yl)morpholine-2-carboxamide], the IC50 under setting [1] came out at 10 nM.

For the compound `C[C@@H]1CN(c2ccc(C#N)n3nccc23)C[C@H](C(=O)NC2CCOCC2)O1` [Example 4, (2R,6R)-4-(7-cyanopyrazolo[1,5-a]pyridin-4-yl)-6-methyl-N-tetrahydropyran-4-yl-morpholine-2-carboxamide], under setting [1], the IC50 worked out at 410 nM.

Values taken from patent US12252484B2, “Pyrazolopyridine compounds for the treatment of autoimmune disease” (Hoffmann-La Roche Inc., priority 2018, dated 2025).
